As usually defined, the melting point is the temperature, or range, at which the solid turns liquid. For `COc1ccc2nccc([C@@H]3CN(CCCNS(=O)(=O)c4ccc5c(c4)NC(=O)CCS5)C(=O)O3)c2c1`, the melting point lay in the range of 128 to 130 °C. Next, `COc1ccc2nccc([C@@H]3CN(CCCNS(=O)(=O)c4ccc5c(c4)NC(=O)CO5)C(=O)O3)c2c1`: 150 to 155 °C.
